Assay results taken from patent US10323019B2, “Pyrazolylaminobenzimidazole derivatives as JAK inhibitors” (Eli Lilly and Company, priority 2016, dated 2019).

Tested on: paw swelling in Lewis rats
Experiment: Rat collagen-induced arthritis (CIA) model
Format: in vivo
Procedure: Rat Collagen-Induced Arthritis (CIA) Model
This protocol uses Lewis rats (weight 150-175 grams) from Charles River. On day 0, anesthetize rats with Isoflurane. On day 1, immunize intradermally with collagen emulsion in two sites on the lower lumbar region, above the base of the tail. Dose volume is a minimum of 0.4 mL per injection site. On day 8, anesthetize rats with Isoflurane and immunize intradermally with collagen emulsion in two sites on the lower lumbar region, above the base of the tail. Enroll rats into treatment groups on day 12, based on inflammation (redness and/or swelling) in their hind paws. Randomize animals for Treatment Phase based on ankle measurement values and body weight using block randomization allocation tool. Record ankle swelling on days 1, 8, and 11 and then three times per week following enrollment up to and including the day of necropsy. Dose compounds orally once a day starting on day 12 (after randomization) up to day 25. The compounds of Examples 6 and 7 were evaluated in the protocol essentially as described above.

## COc1cc(Nc2cc(O[C@H]3CC[C@@H](NC[C@@H](O)C(F)(F)F)CC3)cc3c2ncn3C)nn1C [Example 6, (2R)-1,1,1-Trifluoro-3-{[cis-4-({4-[(5-methoxy-1-methyl-1H-pyrazol-3-yl)amino]-1-methyl-1H-benzimidazol-6-yl}oxy)cyclohexyl]amino}propan-2-ol]
3 mpk oral once a day day 12 to 25, naïve rat as 100% inhibition
  Rat paw swelling % inhibition at 3 mpk: 12%
10 mpk oral once a day day 12 to 25, naïve rat as 100% inhibition
  Rat paw swelling % inhibition at 10 mpk: 47%
30 mpk oral once a day day 12 to 25, naïve rat as 100% inhibition
  Rat paw swelling % inhibition at 30 mpk: 79%
